From ChEMBL document CHEMBL4402577, “Discovery and Optimization of a Compound Series Active against Trypanosoma cruzi, the Causative Agent of Chagas Disease” (J Med Chem, 2020)

Experiments:
L6 = experiment: Cytotoxicity against rat L6 cells incubated for 70 hrs by resazurin dye based assay; type: cell-based; conditions: L6, 70 h
[1] = Selectivity ratio, EC50 for cytotoxicity against rat L6 cells to EC50 for antitrypanosomal activity against Trypanosoma cruzi Tulahuen strain C2C4 trypomastigotes infected in rat L6 cells; type: toxicity, cell-based; conditions: read-out: Ratio EC50
Trypanosoma cruzi = experiment: Antitrypanosomal activity against Trypanosoma cruzi Tulahuen strain C2C4 trypomastigotes infected in rat L6 cells incubated for 96 hrs by photometric method based assay; type: functional, organism-based; conditions: Tulahuen strain C2C4, L6, 96 h

EC50 (Trypanosoma cruzi)	Structure (SMILES)	EC50 (L6)	selectivity ratio [1]
	COc1cc([C@@H]2c3cc4c(cc3[C@H](O)[C@H]3COC(=O)[C@H]23)OCO4)cc(OC)c1OC [PODOFILOX]	0.014 µM	
170 µM	CC(=O)Nc1ccc2[nH]c(=O)n(C(CC3CCCCC3)C(N)=O)c(=O)c2c1 (stereo unspecified)	222 µM	1.3
220 µM	CC(=O)Nc1ccc2[nH]c(=O)n(C3CCN(C(C)(C)C)CC3)c(=O)c2c1	> 280 µM	1
1.9 µM	O=c1[nH]c2ccc(-c3cccnc3)cc2c(=O)n1CCC1CCCCC1	14 µM	7.4
2.1 µM	CC(=O)Nc1ccc2[nH]c(=O)n(C3CCCCCC3)c(=O)c2c1	112 µM	53
14 µM	O=c1[nH]c2ccc(-c3cncnc3)cc2c(=O)n1CCC1CCCCC1	126 µM	9
2.6 µM	CC(=O)Nc1ccc2[nH]c(=O)n([C@H]3CC[C@@H](NC(=O)OC(C)(C)C)CC3)c(=O)c2c1	118 µM	45
120 µM	Cc1noc(C)c1-c1ccc2[nH]c(=O)n(CCC3CCCCC3)c(=O)c2c1	88 µM	
2.1 µM	CC(=O)Nc1ccc2[nH]c(=O)n(CCC3=CCCCC3)c(=O)c2c1	107 µM	51
1.1 µM	CC(=O)Nc1ccc2[nH]c(=O)n(CCc3ccccc3)c(=O)c2c1	139 µM	130
2.6 µM	CC(=O)Nc1ccc2[nH]c(=O)n([C@H]3CC[C@H](C(C)(C)F)CC3)c(=O)c2c1	17 µM	6.5
2.3 µM	CC(=O)Nc1ccc2[nH]c(=O)n(CC3CCCCC3)c(=O)c2c1	54 µM	23
1.7 µM	O=c1[nH]c2ccc(-c3ccncc3)cc2c(=O)n1CCC1CCCCC1	14 µM	8
1.9 µM	Nc1ccc2[nH]c(=O)n(CCC3CCCCC3)c(=O)c2c1	19 µM	10
4 µM	CC(=O)Nc1ccc2[nH]c(=O)n(CCCC(C)C)c(=O)c2c1	173 µM	43
0.48 µM	CC(=O)Nc1ccc2[nH]c(=O)n(CCCC3CCCCC3)c(=O)c2c1	87 µM	180
7.1 µM	CC(C)(C)C(=O)Nc1ccc2[nH]c(=O)n(CCC3CCCCC3)c(=O)c2c1	13 µM	1.8
140 µM	CC(=O)Nc1ccc2[nH]c(=O)n(C3CCN(C(=O)c4ccccc4)CC3)c(=O)c2c1	135 µM	1
9.7 µM	CC(=O)Nc1ccc2[nH]c(=O)n(CCC(C)C)c(=O)c2c1	163 µM	17
2.9 µM	CCCCCCn1c(=O)[nH]c2ccc(NC(C)=O)cc2c1=O	154 µM	53
17 µM	CC(=O)Nc1ccc2[nH]c(=O)n(Cc3ccccc3)c(=O)c2c1	148 µM	9
61 µM	CC(=O)Nc1ccc2[nH]c(=O)n(C(C)(C)C)c(=O)c2c1	37 µM	0.6
30 µM	CC(=O)Nc1ccc2[nH]c(=O)n(C3CCN(C(=O)OC(C)(C)C)CC3)c(=O)c2c1	127 µM	4.2
0.73 µM	CC(=O)Nc1ccc2[nH]c(=O)n(CCC3CCCCC3)c(=O)c2c1	52 µM	110
2.1 µM	N#CCc1ccc2[nH]c(=O)n(CCC3CCCCC3)c(=O)c2c1	70 µM	33
0.027 µM	CC(C)[C@H]1CC[C@H](n2c(=O)[nH]c3ccc(N)cc3c2=O)CC1	22 µM	810
1.94 µM	O=C(Cn1ccnc1[N+](=O)[O-])NCc1ccccc1 [BENZNIDAZOLE]		
